Entries after “also recorded” stand apart in the source; their conditions may differ. Values belong to the molecule of their own block, whether it stands above or below them.
Legend:
PKB kinases [1] = experiment: Association of PKB kinases with sucrose-loaded lipid vesicles containing inositol phospholipids; format: binding, sheep
Procedure: To assay association of PKB and PKB kinases with lipid vesicles and the effects of different lipids on the phosphorylation of PKB, the lipid vesicles were prepared by: sonicating dry lipid films into 0.2 M sucose; 20 mM KCl; 20 mM HEPES, pH 7.4 30° C.; 0.01% azide (to give 200 μM phosphatidylcholine, 150 μM phosphatidylserine, 20 μM phosphatidylethanolamine, 10 μM spingomylin plus the indicated concentrations of inositol lipids final in the assay. These were mixed with the relevant kinases in an assay buffer containing 1 mgml^−1 BSA; 0.12 M NaCl; 1 mM EGTA; 0.2 mM calcium; 1.5 mM MgCl2; 1 mM DTT; 0.01% azide; 5 mM KCl; 20 mM HEPES, pH 7.4, 30° C. (approx. 50 nM free calcium, all final concentrations in assay) with or without [γ^32P]-ATP (1 μM final concentration) and (EE)-PKB (2.5 μM final concentration). If the assays were to estimate associated of the kinases with the lipid vesicles then after 4 mins at 30° C. the assays were centrifuged (airfuge (Beckman) maximum speed for 30 mins). Aliquots of the supernatents were removed for assays or immunoblotting. […] Phosphorylation of PKB(s) were quantitated as described above. […]
Under the same assay conditions used for the PKB phosphorylation studies, we investigated the association of both the PKB kinases and PKB itself (FIG. 2C) with the lipid vesicles in these assays. […] Phosphorylation of PKB(s) was quantitated as described herein.

PKB kinases [2] = experiment: Phosphorylation of a water-soluble 30-mer peptide based on the PKB sequence around Thr308 by PKB kinases; format: biochemical, sheep; details: not shown
[3] = target: (EE)-PKB, EE-tagged protein kinase B purified from SF9 cells (UniProt P31749)
PKB kinases A-D = experiment: PtdIns lipid-dependent phosphorylation and activation of PKB by purified PKB kinases (lipid vesicle assay); format: biochemical, sheep; details: mixed lipid vesicles, (EE)-PKB 2.5 μM, [γ32P]-ATP; FIG. 2A/2B
Procedure: Assays were run in 2 stages. The first stage was run with mixed lipid vesicles either with or without D-D-S/A-PtdIns(3,4,5)P3 (final concentration 5 μM) and in the presence or absence of PKB kinase A (6 nM), wild-type (EE)-PKB (2.5 μM) or T308A/S473A-(EE)-PKB) and [γ^32P]-ATP (50 μM). The assays were stopped and PKB proteins were immunoprecipitated with α(EE)-beads, washed then incubated with [γ^32P]-ATP (10 μM) and myelin basic protein (MBP; 7 μM) to determine the activity of the immobilized PKB. The results are from a single experiment and are represented as means±SE(n=3-5); four further experiments gave similar results. PKB kinases B, C and D gave very similar results.
Assays contained; a constant concentration of mixed lipid vesicles containing the indicated concentrations of inositol phospholipids, (EE)-PKB (2.5 μM), PKB kinase A (5 nM) and [γ^32P]-ATP (1 μM, total volume 12 μl). The data shown are pooled from 12 separate experiments and are means (n=3-6, their average se was 6%).
To assay association of PKB and PKB kinases with lipid vesicles and the effects of different lipids on the phosphorylation of PKB, the lipid vesicles were prepared by: sonicating dry lipid films into 0.2 M sucose; 20 mM KCl; 20 mM HEPES, pH 7.4 30° C.; 0.01% azide (to give 200 μM phosphatidylcholine, 150 μM phosphatidylserine, 20 μM phosphatidylethanolamine, 10 μM spingomylin plus the indicated concentrations of inositol lipids final in the assay. These were mixed with the relevant kinases in an assay buffer containing 1 mgml^−1 BSA; 0.12 M NaCl; 1 mM EGTA; 0.2 mM calcium; 1.5 mM MgCl2; 1 mM DTT; 0.01% azide; 5 mM KCl; 20 mM HEPES, pH 7.4, 30° C. (approx. 50 nM free calcium, all final concentrations in assay) with or without [γ^32P]-ATP (1 μM final concentration) and (EE)-PKB (2.5 μM final concentration). If the assays were to estimate associated of the kinases with the lipid vesicles then after 4 mins at 30° C. the assays were centrifuged (airfuge (Beckman) maximum speed for 30 mins). Aliquots of the supernatents were removed for assays or immunoblotting. The pellets were rinsed rapidly with assay buffer, recentrifuged and dissolved in SDS-sample buffer. Phosphorylation of PKB(s) were quantitated as described above. […]

[4] = target: (EE)-PKB, EE-tagged protein kinase B purified from SF9 cells, P31749
(EE)-PKB, EE-tagged protein kinase B purified from SF9 cells, P31749, sequence (P31749 whole entry, looked up): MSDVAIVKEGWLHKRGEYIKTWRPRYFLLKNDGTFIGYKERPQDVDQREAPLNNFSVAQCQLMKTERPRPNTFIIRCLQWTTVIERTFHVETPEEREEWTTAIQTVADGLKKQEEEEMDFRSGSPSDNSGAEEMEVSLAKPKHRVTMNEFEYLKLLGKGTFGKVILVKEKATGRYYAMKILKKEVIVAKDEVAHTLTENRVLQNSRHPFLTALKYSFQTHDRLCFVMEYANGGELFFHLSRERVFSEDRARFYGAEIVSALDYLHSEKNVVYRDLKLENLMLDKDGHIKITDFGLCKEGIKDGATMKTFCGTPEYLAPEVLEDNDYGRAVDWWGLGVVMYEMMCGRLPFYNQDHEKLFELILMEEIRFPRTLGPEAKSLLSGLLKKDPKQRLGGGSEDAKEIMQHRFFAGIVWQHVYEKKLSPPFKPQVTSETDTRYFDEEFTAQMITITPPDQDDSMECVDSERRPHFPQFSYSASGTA

Molecule: CCCCCCCCCCCCCCCC(=O)OC[C@H](COP(=O)(O)O[C@H]1[C@H](O)[C@@H](O)[C@H](OP(=O)(O)O)[C@@H](OP(=O)(O)O)[C@H]1O)OC(=O)CCCCCCCCCCCCCCC [D-D-P/P-PtdIns(3,4)P2]
association of PKB kinases with lipid vesicles containing the lipid (PKB kinases [1]; 4 mins at 30° C., vesicles pelleted by centrifugation): associated with the lipid vesicles

Molecule: phosphatidylinositol-3,4,5-triphosphate [PtdIns(3,4,5)P3]
effect of the lipid on phosphorylation of 30-mer PKB Thr308 peptide (PKB kinases [2]): dramatically inhibited

Molecule: PKB kinase A purified from sheep brain cytosol
phosphorylation and activation of PKB (activation judged by myelin basic protein phosphorylation) [3]: All four activities phosphorylate and activate (as judged by mylein basic protein (MBP) phosphorylation) PKB in the presence of the biological stereoisomers of PtdIns(3,4,5)P3 or PtdIns(3,4)P2

PKB kinase phosphorylation/activation of PKB in the presence of the lipid (PKB kinases A-D): inactive against PKB
Molecule: phosphatidylinositol4,5-bisphosphate [PtdIns(4,5)P2]

PKB kinase phosphorylation/activation of PKB in the presence of the lipid (PKB kinases A-D): phosphorylate and activate
Molecule: phosphatidylinositol-3,4-bisphosphate [PtdIns(3,4)P2]
effect of the lipid on phosphorylation of 30-mer PKB Thr308 peptide (PKB kinases [2]): dramatically inhibited

PKB kinase phosphorylation/activation of PKB in the presence of the lipid (PKB kinases A-D): equally effectively activated
Molecule: CCCCC/C=C\C/C=C\C/C=C\C/C=C\CCCC(=O)OC(COC(=O)CCCCCCCCCCCCCCCCC)COP(=O)(O)OC1C(O)C(OP(=O)(O)O)C(OP(=O)(O)O)C(OP(=O)(O)O)C1O [D-L-S/A-PtdIns(3,4,5)P3, (2-arachidonyl, 3-stearoyl) sn-phosphatidyl D-myoinositol(3,4,5)-trisphosphate]

Molecule: CCCCC/C=C\C/C=C\C/C=C\C/C=C\CCCC(=O)OC(COC(=O)CCCCCCCCCCCCCCCCC)COP(=O)(O)OC1C(O)C(OP(=O)(O)O)C(OP(=O)(O)O)C(OP(=O)(O)O)C1O [D-D-S/A-PtdIns(3,4,5)P3, (1-stearoyl, 2-arachidonyl) snphosphatidyl D-myo-inositol (3,4,5)-trisphosphate]
PKB kinase phosphorylation/activation of PKB in the presence of the lipid (PKB kinases A-D): phosphorylate and activate; also recorded: equally effectively activated
molar percentage of the lipid in vesicles at which PKB kinases associated (PKB kinases [1]; very low molar percentages): 0.003%

B1: (EE)-II, N-terminally EE-tagged 55 kd PKB kinase (complete ORF of FIG. 3) expressed in cos-7 cells (protein)
chain: MARTTSQLYDAVPIQSSVVLCSCPSPSMVRSQTESSTPPGIPGGSRQGPAMDGTAAEPRPGAGSLQHAQPPPQPRKKRPEDFKFGKILGEGSFSTVVLARELATSREYAIKILEKRHIIKENKVPYVTRERDVMSRLDHPFFVKLYFTFQDDEKLYFGLSYAKNGELLKYIRKIGSFDETCTRFYTAEIVSALEYLHGKGIIHRDLKPENILLNEDMHIQITDFGTAKVLSPESKQARANSFVGTAQYVSPELLTEKSACKSSDLWALGCIIYQLVAGLPPFRAGNEYLIFQKIIKLEYDFPEKFFPKARDLVEKLLVLDATKRLGCEEMEGYGPLKAHPFFESVTWENLHQQTPPKLTAYLPAMSEDDEDCYGNYDNLLSQFGCMQVSSSSSSHSLSASDTGLPQRSGSNIEQYIHDLDSNSFELDLQFSEDEKRLLLEKQAGGNPWHQFVENNLILKMGPVDKRKGLFARRRQLLLTEGPHLYYVDPVNKVLKGEIPWSQELRPEAKNFKTFFVHTPNRTYYLMDPSGNAHKWCRKIQEVWRQRYQSHPDAAVQ
PKB kinase activity ([32P] in PKB, autoradiogram) [4]: The protein with the intact protein kinase domain phosphorylated PKB in a PtdIns(3,4,5)P3-sensitive manner

Reference: patent US6682920B1, “Compositions and methods for identifying PKB kinase inhibitors” (Onyx Pharmaceuticals, Inc., priority 1997, dated 2004)
